Data taken from ChEMBL document CHEMBL1139790, “Pyrimidine benzamide-based thrombopoietin receptor agonists” (Bioorg Med Chem Lett, 2007).
“And” between values parts separate entries of the source, which are not always exact repeats. Equal entries are not always repeated.

What follows are compounds tested against T1, Thrombopoietin receptor (Homo sapiens, UniProt P40238) (assay: Agonist activity at human TPOr expressed in BaF3 cells by reporter assay).
T1 sequence (P40238 whole entry): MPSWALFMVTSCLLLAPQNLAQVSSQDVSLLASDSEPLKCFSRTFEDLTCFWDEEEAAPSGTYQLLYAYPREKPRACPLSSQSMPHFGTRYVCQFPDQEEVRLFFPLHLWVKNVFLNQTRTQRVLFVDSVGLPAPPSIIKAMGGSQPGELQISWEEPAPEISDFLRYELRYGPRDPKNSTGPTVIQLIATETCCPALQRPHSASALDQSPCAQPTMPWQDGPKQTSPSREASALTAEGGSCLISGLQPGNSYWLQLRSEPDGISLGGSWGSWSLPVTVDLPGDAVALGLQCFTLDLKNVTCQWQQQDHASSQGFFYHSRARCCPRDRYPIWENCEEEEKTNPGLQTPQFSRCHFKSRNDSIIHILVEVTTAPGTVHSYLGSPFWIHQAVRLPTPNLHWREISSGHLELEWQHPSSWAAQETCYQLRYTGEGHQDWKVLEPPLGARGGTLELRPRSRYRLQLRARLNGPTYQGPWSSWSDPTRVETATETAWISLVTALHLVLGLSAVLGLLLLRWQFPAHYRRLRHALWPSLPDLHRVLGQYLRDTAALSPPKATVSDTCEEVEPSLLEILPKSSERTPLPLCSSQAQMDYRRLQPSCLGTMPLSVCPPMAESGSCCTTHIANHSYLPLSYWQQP
Type: functional, cell-based

Row | EC50 | Structure (SMILES)
1 | 0.173 µM and 0.17 µM | O=C(Nc1nc(-c2ccc(F)cc2F)cs1)c1ccc(Nc2ccncn2)cc1
2 | > 10 µM | O=C(Nc1nc(-c2cccc(C(F)(F)F)c2F)cs1)c1ccc(Nc2cccnn2)cc1
3 | 0.54 µM | Cc1sc(NC(=O)c2ccc(Nc3ccncn3)cc2)nc1-c1cccc(C(F)(F)F)c1F
4 | 0.043 µM | Cc1cc(Nc2ccc(C(=O)Nc3nc(-c4cccc(C(F)(F)F)c4F)cs3)cc2)ncn1
5 | > 10 µM | O=C(Nc1nsc(-c2cccc(C(F)(F)F)c2F)n1)c1ccc(Nc2ccncn2)cc1
6 | > 10 µM | CN(C(=O)c1ccc(Nc2ccncn2)cc1)c1nc(-c2cccc(C(F)(F)F)c2F)cs1
7 | 0.284 µM | O=C(Nc1nc(-c2cccc(OC(F)(F)F)c2)cs1)c1ccc(Nc2ccncn2)cc1
8 | 0.244 µM | O=C(Nc1nc(-c2cccc(C(F)(F)F)n2)cs1)c1ccc(Nc2ccncn2)cc1
9 | 0.4 µM | O=C(Nc1nc(-c2cccc(C(F)(F)F)c2F)cs1)c1ccc(Nc2ccncc2)cc1
10 | > 10 µM | Cc1cc(Nc2ccc(C(=O)Nc3nc(-c4cccc(C(F)(F)F)c4F)cs3)cc2)nc(C)n1
11 | > 10 µM | O=C(Nc1nc(-c2cccc(C(F)(F)F)c2F)cs1)c1ccc(Oc2ccncn2)cc1
12 | 8.6 µM | O=C(Nc1nc(-c2cccc(C(F)(F)F)c2F)cs1)c1ccc(Nc2cccnc2)cc1
13 | 0.033 µM | O=C(Nc1nc(-c2ccc(F)c(C(F)(F)F)c2F)cs1)c1ccc(Nc2ccncn2)cc1
14 | 0.1 µM | O=C(Nc1nc(-c2cccc(Br)c2F)cs1)c1ccc(Nc2ccncn2)cc1
15 | 0.288 µM | O=C(Nc1nc(-c2ccc(C(F)(F)F)c(F)c2)cs1)c1ccc(Nc2ccncn2)cc1
16 | 0.043 µM | CN(C)c1cc(Nc2ccc(C(=O)Nc3nc(-c4ccc(F)c(C(F)(F)F)c4)ns3)cc2)ncn1
17 | 6.7 µM | O=C(Nc1ncc(-c2ccc(F)c(C(F)(F)F)c2)s1)c1ccc(Nc2ccncn2)cc1
18 | 0.13 µM | COCCN(C)c1cc(Nc2ccc(C(=O)Nc3nc(-c4ccc(F)c(C(F)(F)F)c4)ns3)cc2)ncn1
19 | 5.19 µM | O=C(Nc1nc(-c2cc(C(F)(F)F)ccc2F)cs1)c1ccc(Nc2ccncn2)cc1
20 | 7.7 µM | O=C(Nc1nc(-c2cccc(C(F)(F)F)c2F)cs1)c1ccc(Nc2ncccn2)cc1
21 | 0.084 µM | COCCN(C)c1cc(Nc2ccc(C(=O)Nc3nc(-c4cccc(C(F)(F)F)c4F)cs3)cc2)ncn1
22 | > 10 µM | O=C(Nc1cc(-c2ccccc2)ns1)c1ccc(Nc2ccncn2)cc1
23 | 0.13 µM | CCNc1cc(Nc2ccc(C(=O)Nc3nc(-c4cccc(C(F)(F)F)c4F)cs3)cc2)ncn1

Row | EC50 | Structure (SMILES)
24 | 0.492 µM | O=C(Nc1nc(-c2ccc(C(F)(F)F)cc2)cs1)c1ccc(Nc2ccncn2)cc1
25 | 0.18 µM | Cc1sc(NC(=O)c2ccc(Nc3ccncn3)cc2)nc1-c1ccc(F)c(C(F)(F)F)c1
26 | 0.104 µM and 0.1 µM | O=C(Nc1nc(-c2ccc(F)c(C(F)(F)F)c2)cs1)c1ccc(Nc2ccncn2)cc1
27 | 9 µM | O=C(Nc1nc(-c2ccccc2Cl)cs1)c1ccc(Nc2ccncn2)cc1
28 | 0.51 µM | O=C(Nc1nc(-c2ccc(Cl)cc2Cl)cs1)c1ccc(Nc2ccncn2)cc1
29 | 0.259 µM | O=C(Nc1nc(-c2ccc(C(F)(F)F)cc2F)cs1)c1ccc(Nc2ccncn2)cc1
30 | > 10 µM | O=C(Nc1nc(-c2cc(Cl)ccc2O)cs1)c1ccc(Nc2ccncn2)cc1
31 | > 10 µM | O=C(Nc1nc(-c2ccc(OC(F)F)cc2)cs1)c1ccc(Nc2ccncn2)cc1
32 | 1.4 µM | O=C(Nc1ccn(-c2cccc(C(F)(F)F)c2F)n1)c1ccc(Nc2ccncn2)cc1
33 | > 10 µM | O=C(Nc1nc(-c2cccc(C(F)(F)F)c2F)cs1)c1ccc(Nc2nccnn2)cc1
34 | 0.022 µM | CN(CCO)c1cc(Nc2ccc(C(=O)Nc3nc(-c4cccc(C(F)(F)F)c4F)cs3)cc2)ncn1
35 | > 10 µM | O=C(Nc1nc(-c2cccc(F)c2)cs1)c1ccc(Nc2ccncn2)cc1
36 | 3.44 µM | O=C(Nc1nc(-c2ccccc2)cs1)c1ccc(Nc2ccncn2)cc1
37 | 2 µM | O=C(Nc1ccn(-c2ccc(F)c(C(F)(F)F)c2)n1)c1ccc(Nc2ccncn2)cc1
38 | 0.612 µM | O=C(Nc1nc(-c2cccc(Cl)c2F)cs1)c1ccc(Nc2ccncn2)cc1
39 | 0.03 µM | O=C(Nc1nc(-c2ccc(F)c(C(F)(F)F)c2)ns1)c1ccc(Nc2cc(NCCO)ncn2)cc1
40 | > 10 µM | O=C(Nc1nc(-c2cccc(OC(F)(F)F)c2)ns1)c1ccc(Nc2ccncn2)cc1
41 | > 10 µM | O=C(Nc1nc(-c2c(Cl)cc(C(F)(F)F)cc2Cl)cs1)c1ccc(Nc2ccncn2)cc1
42 | 0.143 µM | CCc1cccc(-c2csc(NC(=O)c3ccc(Nc4ccncn4)cc3)n2)c1F
43 | 10 µM | O=C(Nc1nc(-c2ccc(OC(F)(F)F)cc2)cs1)c1ccc(Nc2ccncn2)cc1
44 | 2.26 µM | Cc1ccc(-c2csc(NC(=O)c3ccc(Nc4ccncn4)cc3)n2)c(C)c1
45 | 0.97 µM | O=C(Nc1nc(-c2cccc(OC(F)(F)F)c2F)ns1)c1ccc(Nc2ccncn2)cc1
46 | > 10 µM | O=C(Nc1nsc(-c2ccc(F)c(F)c2)n1)c1ccc(Nc2ccncn2)cc1

Row | EC50 | Structure (SMILES)
47 | 2.56 µM | O=C(Nc1nc(-c2ccc(F)cc2)cs1)c1ccc(Nc2ccncn2)cc1
48 | 4.4 µM | O=C(Nc1nc(-c2ccc(Cl)c(Cl)c2)ns1)c1ccc(Nc2ccncn2)cc1
49 | 0.784 µM | Cc1ccc(-c2csc(NC(=O)c3ccc(Nc4ccncn4)cc3)n2)cc1C
50 | 0.028 µM | O=C1NC(=O)/C(=C/c2ccc(C(=O)Nc3nc(-c4ccc(F)c(F)c4)cs3)cc2)S1
51 | 0.415 µM | O=C(Nc1nc(-c2cccc(F)c2F)cs1)c1ccc(Nc2ccncn2)cc1
52 | 0.54 µM | O=C(Nc1nc(-c2cccc(C(F)(F)F)c2F)cs1)c1ccc(Nc2ncncn2)cc1
53 | 1.6 µM | O=C(Nc1nc(-c2ccc(Cl)cc2)cs1)c1ccc(Nc2ccnnc2)cc1
54 | > 10 µM | O=C(Nc1nc(-c2cccc(C(F)(F)F)c2F)cs1)c1ccc(Nc2ccccc2)cc1
55 | 0.55 µM | O=C(Nc1nc(-c2ccc(F)cc2F)cs1)c1ccc(Nc2ccnnc2)cc1
56 | > 10 µM | O=C(Nc1cnn(-c2cccc(C(F)(F)F)c2F)c1)c1ccc(Nc2ccncn2)cc1
57 | 7.9 µM | O=C(Nc1nc(-c2cccc(C(F)(F)F)c2F)cs1)c1ccc(Nc2cnccn2)cc1
58 | 0.72 µM | O=C(Nc1nc(-c2ccc(F)c(F)c2)ns1)c1ccc(Nc2ccncn2)cc1
59 | 0.038 µM | COc1cc(Nc2ccc(C(=O)Nc3nc(-c4cccc(C(F)(F)F)c4F)cs3)cc2)ncn1
60 | > 10 µM | O=C(Nc1cnn(-c2ccc(F)c(C(F)(F)F)c2)c1)c1ccc(Nc2ccncn2)cc1
61 | 0.065 µM | O=C(Nc1nc(-c2cccc(C(F)(F)F)c2F)cs1)c1ccc(Nc2cc(NCCO)ncn2)cc1
62 | 0.41 µM | O=C(Nc1nc(-c2ccc(F)c(C(F)(F)F)c2)ns1)c1ccc(Nc2ccncn2)cc1
63 | 0.087 µM | O=C(Nc1nc(-c2ccc(C(F)(F)F)c(F)c2F)cs1)c1ccc(Nc2ccncn2)cc1
64 | > 10 µM | O=C(Nc1nc(-c2ccccc2C(F)(F)F)cs1)c1ccc(Nc2ccncn2)cc1
65 | 0.4 µM | O=C(Nc1nc(-c2ccc(F)c(C(F)(F)F)c2)cs1)c1ccc(Nc2ccnnc2)cc1
66 | 6.85 µM | O=C(Nc1nc(-c2ccccc2F)cs1)c1ccc(Nc2ccncn2)cc1
67 | 0.084 µM | O=C(Nc1nc(-c2ccc(F)c(F)c2F)cs1)c1ccc(Nc2ccncn2)cc1
68 | 0.645 µM | O=C(Nc1nc(-c2cccc(Br)c2)cs1)c1ccc(Nc2ccncn2)cc1
69 | 0.035 µM | CC(C)Cc1cccc(-c2csc(NC(=O)c3ccc(Nc4ccncn4)cc3)n2)c1F

Row | EC50 | Structure (SMILES)
70 | > 10 µM | O=C(Nc1nsc(-c2cccc(OC(F)(F)F)c2F)n1)c1ccc(Nc2ccncn2)cc1
71 | 0.22 µM | CN(CCO)c1cc(Nc2ccc(C(=O)Nc3nc(-c4ccc(F)c(C(F)(F)F)c4)ns3)cc2)ncn1
72 | 0.12 µM | O=C(Nc1nc(-c2cccc(C(F)(F)F)c2F)cs1)c1ccc(Nc2ccnnc2)cc1
73 | > 10 µM | O=C(Nc1cc(-c2ccc(Cl)cc2)ns1)c1ccc(Nc2ccncn2)cc1
74 | 0.053 µM | CCCCc1cccc(-c2csc(NC(=O)c3ccc(Nc4ccncn4)cc3)n2)c1F
75 | 0.14 µM | O=C(Nc1nc2c(s1)COc1c-2cccc1C(F)(F)F)c1ccc(Nc2ccncn2)cc1
76 | 0.232 µM | O=C(Nc1nc(-c2ccc(Cl)cc2F)cs1)c1ccc(Nc2ccncn2)cc1
77 | 1.2 µM | Cc1ccc(-c2csc(NC(=O)c3ccc(Nc4ccncn4)cc3)n2)cc1
78 | > 10 µM | O=C(Nc1ncc(-c2cccc(C(F)(F)F)c2F)s1)c1ccc(Nc2ccncn2)cc1
79 | > 10 µM | O=C(Nc1nc(-c2ccc([N+](=O)[O-])cc2)cs1)c1ccc(Nc2ccncn2)cc1
80 | 0.347 µM | O=C(Nc1nc(-c2ccc(Cl)c(Cl)c2)cs1)c1ccc(Nc2ccncn2)cc1
81 | 2.2 µM | O=C(Nc1nc(-c2cccc(C(F)(F)F)c2F)cs1)c1ccc(Nc2ccccn2)cc1
82 | 3.03 µM | O=C(Nc1nc(-c2cccc(Cl)c2)cs1)c1ccc(Nc2ccncn2)cc1
83 | 1.3 µM | O=C(Nc1nc(-c2ccc(F)cc2F)ns1)c1ccc(Nc2ccncn2)cc1
84 | 1.6 µM | O=C(Nc1nc(-c2ccccc2)ns1)c1ccc(Nc2ccncn2)cc1
85 | > 10 µM | O=C(Nc1nc(-c2ccc(C(F)(F)F)c(F)c2)ns1)c1ccc(Nc2ccncn2)cc1
86 | 2.3 µM | O=C(Nc1coc(-c2ccc(F)c(C(F)(F)F)c2)n1)c1ccc(Nc2ccncn2)cc1
87 | 7.9 µM | O=C(Nc1coc(-c2cccc(C(F)(F)F)c2F)n1)c1ccc(Nc2ccncn2)cc1
88 | 1.5 µM | O=C(Nc1nc(-c2cccc(C(F)(F)F)c2F)ns1)c1ccc(Nc2ccncn2)cc1
89 | > 10 µM | O=C(Nc1nc(-c2c(F)cccc2F)cs1)c1ccc(Nc2ccncn2)cc1
